The results in this text go back to article doi:10.1101/2021.04.08.439011v1 (biorxiv, 2021).

Some targets named below: DYRK1B (Homo sapiens, UniProt Q9Y463); LTK (Homo sapiens, UniProt P29376); TTBK1 (Homo sapiens, UniProt Q5TCY1); STK33 (Homo sapiens, UniProt Q9BYT3).
Holding throughout (test): biochemical
Common to all, as to settings: read-out: Residual activity

Structures are written as SMILES.

Sequence of DYRK1B (Q9Y463 whole entry): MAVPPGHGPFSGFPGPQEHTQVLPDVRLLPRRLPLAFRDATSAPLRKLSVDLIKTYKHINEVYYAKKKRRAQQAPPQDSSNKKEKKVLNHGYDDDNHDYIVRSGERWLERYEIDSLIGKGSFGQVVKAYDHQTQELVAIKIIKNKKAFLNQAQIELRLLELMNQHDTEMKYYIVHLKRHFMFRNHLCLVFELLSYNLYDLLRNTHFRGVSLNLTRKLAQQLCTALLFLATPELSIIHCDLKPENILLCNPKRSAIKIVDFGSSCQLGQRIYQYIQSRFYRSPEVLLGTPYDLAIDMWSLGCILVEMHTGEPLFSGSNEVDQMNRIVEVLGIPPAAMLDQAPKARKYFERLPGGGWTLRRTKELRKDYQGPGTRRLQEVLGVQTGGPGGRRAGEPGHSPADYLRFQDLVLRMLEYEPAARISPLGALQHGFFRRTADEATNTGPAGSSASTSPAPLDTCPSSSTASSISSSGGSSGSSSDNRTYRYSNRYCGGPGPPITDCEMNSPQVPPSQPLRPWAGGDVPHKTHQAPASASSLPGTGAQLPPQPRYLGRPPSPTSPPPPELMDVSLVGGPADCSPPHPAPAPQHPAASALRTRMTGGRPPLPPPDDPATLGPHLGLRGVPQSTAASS
Sequence of TTBK1 (Q5TCY1 whole entry): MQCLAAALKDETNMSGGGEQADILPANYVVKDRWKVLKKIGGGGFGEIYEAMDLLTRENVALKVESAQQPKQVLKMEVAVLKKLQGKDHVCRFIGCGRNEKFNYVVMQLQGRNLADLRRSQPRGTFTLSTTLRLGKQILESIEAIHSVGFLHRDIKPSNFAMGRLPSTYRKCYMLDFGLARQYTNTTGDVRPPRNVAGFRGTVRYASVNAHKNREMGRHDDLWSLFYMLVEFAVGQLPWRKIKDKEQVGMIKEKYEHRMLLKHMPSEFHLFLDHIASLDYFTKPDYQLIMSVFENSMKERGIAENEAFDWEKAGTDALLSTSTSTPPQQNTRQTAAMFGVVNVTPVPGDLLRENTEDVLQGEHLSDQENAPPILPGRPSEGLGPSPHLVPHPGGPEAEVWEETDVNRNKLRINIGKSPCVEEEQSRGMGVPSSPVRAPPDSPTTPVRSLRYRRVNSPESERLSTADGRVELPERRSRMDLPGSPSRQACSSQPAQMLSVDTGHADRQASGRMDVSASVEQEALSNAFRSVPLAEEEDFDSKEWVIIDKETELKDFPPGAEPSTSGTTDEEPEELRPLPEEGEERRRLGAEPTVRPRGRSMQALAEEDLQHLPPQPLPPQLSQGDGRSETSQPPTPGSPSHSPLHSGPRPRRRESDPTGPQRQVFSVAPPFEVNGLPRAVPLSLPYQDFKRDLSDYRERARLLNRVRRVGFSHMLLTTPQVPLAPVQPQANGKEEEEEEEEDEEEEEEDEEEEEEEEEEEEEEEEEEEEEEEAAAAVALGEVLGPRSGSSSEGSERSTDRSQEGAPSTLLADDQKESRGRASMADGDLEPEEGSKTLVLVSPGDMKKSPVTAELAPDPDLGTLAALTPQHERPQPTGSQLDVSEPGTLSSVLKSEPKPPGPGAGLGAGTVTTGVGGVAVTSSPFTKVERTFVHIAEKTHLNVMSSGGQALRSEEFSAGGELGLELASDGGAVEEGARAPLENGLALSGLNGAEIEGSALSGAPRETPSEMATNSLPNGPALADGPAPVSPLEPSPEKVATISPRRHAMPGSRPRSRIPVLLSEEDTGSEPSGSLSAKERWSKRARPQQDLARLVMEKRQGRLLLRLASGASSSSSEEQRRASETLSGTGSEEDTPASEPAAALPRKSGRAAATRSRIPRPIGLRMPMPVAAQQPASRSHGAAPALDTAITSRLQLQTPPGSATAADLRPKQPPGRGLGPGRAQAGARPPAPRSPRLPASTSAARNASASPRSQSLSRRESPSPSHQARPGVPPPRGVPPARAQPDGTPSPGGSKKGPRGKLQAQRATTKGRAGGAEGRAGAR
Sequence of LTK (P29376 whole entry): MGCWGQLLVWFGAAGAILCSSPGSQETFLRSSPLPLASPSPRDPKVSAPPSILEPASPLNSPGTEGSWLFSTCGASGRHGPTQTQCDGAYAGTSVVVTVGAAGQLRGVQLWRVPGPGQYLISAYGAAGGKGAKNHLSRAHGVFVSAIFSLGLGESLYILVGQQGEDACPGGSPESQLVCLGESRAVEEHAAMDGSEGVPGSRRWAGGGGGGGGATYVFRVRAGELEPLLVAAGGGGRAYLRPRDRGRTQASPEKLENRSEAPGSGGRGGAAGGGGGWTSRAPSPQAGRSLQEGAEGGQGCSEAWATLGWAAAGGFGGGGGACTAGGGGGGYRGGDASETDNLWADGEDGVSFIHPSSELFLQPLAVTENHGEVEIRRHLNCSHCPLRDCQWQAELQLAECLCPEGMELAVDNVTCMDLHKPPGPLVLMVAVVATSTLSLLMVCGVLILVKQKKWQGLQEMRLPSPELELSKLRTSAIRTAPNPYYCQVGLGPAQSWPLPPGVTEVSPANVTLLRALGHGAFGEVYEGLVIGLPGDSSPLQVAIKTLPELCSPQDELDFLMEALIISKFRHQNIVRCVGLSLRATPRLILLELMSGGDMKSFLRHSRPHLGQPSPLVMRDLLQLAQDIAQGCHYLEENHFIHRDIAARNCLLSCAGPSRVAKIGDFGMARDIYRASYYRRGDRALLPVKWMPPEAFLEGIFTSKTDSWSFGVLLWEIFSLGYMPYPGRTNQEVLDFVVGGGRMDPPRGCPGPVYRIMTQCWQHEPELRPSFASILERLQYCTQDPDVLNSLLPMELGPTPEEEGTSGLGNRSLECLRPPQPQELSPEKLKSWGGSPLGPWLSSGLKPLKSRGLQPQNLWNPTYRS
Sequence of STK33 (Q9BYT3 whole entry): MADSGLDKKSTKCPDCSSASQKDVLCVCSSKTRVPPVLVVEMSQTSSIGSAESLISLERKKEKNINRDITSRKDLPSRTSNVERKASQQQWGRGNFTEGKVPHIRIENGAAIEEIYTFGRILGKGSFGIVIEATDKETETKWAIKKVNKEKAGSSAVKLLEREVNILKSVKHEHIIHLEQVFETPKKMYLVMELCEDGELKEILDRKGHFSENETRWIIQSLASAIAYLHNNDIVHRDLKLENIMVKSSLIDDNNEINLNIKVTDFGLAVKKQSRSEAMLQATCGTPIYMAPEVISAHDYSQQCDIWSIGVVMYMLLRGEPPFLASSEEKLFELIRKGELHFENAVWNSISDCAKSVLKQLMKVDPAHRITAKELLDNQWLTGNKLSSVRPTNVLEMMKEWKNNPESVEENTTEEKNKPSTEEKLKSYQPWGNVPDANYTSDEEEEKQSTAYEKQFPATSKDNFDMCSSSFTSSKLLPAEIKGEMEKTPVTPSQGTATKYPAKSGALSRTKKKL

As to `CNc1ncc2cc(-c3ccc(-c4ncccc4F)cc3Cl)c(=O)n(CC3OCC(N)CO3)c2n1` (stereo not shown) [compound 10, 8-(((2r,5r)-5-Amino-1,3-dioxan-2-yl)methyl)-6-(2-chloro-4-(3-fluoropyridin-2-yl)phenyl)-2-(methylamino)pyrido[2,3-d]pyrimidin-7(8H)-one], the remaining activity at 1 µM on DYRK1B is 98%; at LTK, 105%; on TTBK1, 131%; on STK33, 89%.
